Experimental data: patent US4623648A, “1-azaxanthone for use as therapeutic agent as an antipyretic, analgesic, anti-inflammatory and bronchodilator” (priority 1981, dated 1986)
In brackets after ≈: the same amount, converted by molar mass. Like-named read-outs stand apart in the source and are kept apart here.

What was measured:
rats [1] = assay: Subacute toxicity study in rats (42 days); format: in vivo
guinea pig = assay: Inhibition of the bronchoconstrictor response to bradykinin in guinea pig; format: in vivo; details: 8 mg/kg i.v.; 10 min after 6 μg and 8 min before 12 μg of bradykinin
Protocol: (§1) Sprague-Dawley rats, Swiss mice, California rabbits and mongrel guinea pigs and cats were used. 1-azaxanthone was administered as a suspension in 0.5 % w/v of carboxymethyl-cellulose in distilled water for oral and i.p. administration. When administered i.v. or to the nutrient liquid of the isolated tissues, a solution of the compound in isopropylidenglycerol (15 mg/ml) was used.
Inhibition of the bronchoconstrictor response to bradykinin in guinea pig (according to H. Konzett and R. Rossler, ibid.). 1-azaxanthone (8 mg/kg i.v.) produced a 100% inhibition of the response induced by bradykinin when the test compound was administered 10 min after 6 μg and 8 min before 12 μg of bradykinin.

rabbits = assay: Lipopolysaccharide hyperthermia in rabbits with established fever; format: in vivo; details: 200 mg/kg i.p.
Protocol: as §1
Hyperthermia induced in rabbits by i.v. injection of lipopolysaccharide of Escherichia coli (according to C. A. Winter and G. W. Nuss, Toxic. Appl. Pharmacol. 1963, 5, 247). […] The compound was also effective when administered to rabbits with established fever; for example, when 200 mg/kg of 1-azaxanthone were administered i.p. to a group of 5 rabbits from a total of 10 with mean hyperpyrexia of +1.15° C. 2 hours after the lipopolysaccharide injection, the hyperpyrexia of the treated group was +0.7° C. at 2 hours and +0.1° C. at 3 hours, while the hyperpyrexia of the untreated animals was 1.5° C. at 2 hours and 1.15° C. at 3 hours (all periods after administration of the test compound).

[2] = system: schistosomiasis infections; details: F. G. Mann, J. A. Reid, J. Chem. Soc. 1952; cited from earlier work
rat inflamed paw = assay: Hyperalgesia in rat inflamed paw (Randall and Selitto); format: in vivo; details: po, per os, read-out: AID2 (dose that increases twice the analgesic threshold of the control animals)
Protocol: as §1
Hyperalgesia in rat inflamed paw (according to L. O. Randall and J. J. Selitto, Arch. Int. Pharmacodyn. 1957, 111, 409).

granuloma pouch = assay: Granuloma pouch; details: in vivo
cats = assay: Physiologic peristaltic movements in cats; format: in vivo; details: 4 mg/kg endovenously
Protocol: as §1

[3] = Water solubility (general statement); format: physicochemical
Acute toxicity in mice = details: mouse, in vivo, ip, female mice
Protocol: (§2) The acute toxicity of 1-azaxanthone was evaluated in rats and mice. LD50 values ranged between 400-600 mg/kg (i.p. route) and between 600-2000 mg/kg (oral route) depending on species and sex.

[4] = system: guinea pig tracheal chain; assay: Isolated guinea pig tracheal chain; details: Cavia porcellus, bath nutrient liquid
Protocol: as §1
Isolated guinea pig tracheal chain (according to J. C. Castillo and E. K. DeBeer, J. Pharmacol. Exptl. Ther. 1947, 90, 104). 1-azaxanthone produced maximum relaxation of the tracheal muscle at a concentration of 20 μg/ml in the bath nutrient liquid. The minimun effective dose was about 5 μg/ml.

[5] = system: bilaterally suprarenalectomized rats; assay: Carrageenan paw oedema in bilaterally suprarenalectomized rats; format: in vivo; details: 200 mg/kg per os
Protocol: as §1
Carrageenan rat paw oedema (according to C. A. Winter et al., Proc. Soc. Exptl. Biol. N.Y. 1962, 111, 544).

mice [6] = assay: Phenyl-p-benzoquinone induced writhing in mice; format: in vivo; details: Mus musculus; oral; 95% confidence limits 6.1-11.8
Protocol: as §1
Phenyl-p-benzoquinone induced writhing in mice (according to E. A. Siegmund et al., J. Pharmacol. Exptl. Therap. 1957, 119, 453). […] I

rats [7] = assay: 14 day oral tolerance of gastric and rectal mucosae and liver elimination of sulphobromophthalein; format: in vivo; details: 200 mg/kg/day oral, 14 consecutive days
rats [8] = assay: Diuretic activity in rats; format: in vivo; details: 10 mg/kg oral
Protocol: as §1
1-azaxanthone was administered orally to rats (groups of 10) in a volume of 5 ml/rat immediately before allocating the animals to metabolism cages. The total volume of urine was measured 6 and 24 hours later. 10 mg/kg of 1-azaxanthone increased the total volume with respect to the control group by 94% in the first 6 hours and 44% in the 24 hours period.

[9] = system: Mycob. Butyricum induced arthritis; assay: Mycob. Butyricum induced arthritis; format: in vivo; details: only in preventative treatment
Excerpt: Butyricum induced arthritis (only in preventative treatment).

Acute toxicity in rats = details: rat, in vivo
Protocol: as §2

mice [10] = assay: Acetic acid induced writhing in mice; format: in vivo; details: Mus musculus; oral; 95% confidence limits 2.1-3.4
Protocol: as §1
Acetic acid induced writhing in mice (according to R. Koster et al., Fedn. Proc. 1959, 18, 412).

[11] = Acute toxicity in rats and mice (overall ranges); details: in vivo, depending on species and sex
Protocol: as §2

rats [12] = assay: 6 months toxicity evaluation in rats; format: in vivo; details: 25, 50 and 100 mg/kg/day p.o.
Evans blue permeability = Evans blue permeability assay; details: in vivo
Guinea pig ileum = Guinea pig ileum in vitro spasmolytic assay; details: Cavia porcellus, read-out: ED50 (dose which inhibits the response of the ileum to the agonist by 50%)
Protocol: as §1
Guinea pig ileum (according to R. Magnus, Pflugers Arch. Ges. Physiol. 1904, 102, 123). In this "in vitro" assay 1-azaxanthone had the following ED50 with different agonists (dose which inhibits the response of the ileum to the agonists by 50%): […]

O=c1c2ccccc2oc2ncccc12 [1-azaxanthone]
reversibility of hepatomegaly (rats [1]; another study, on discontinuing the administration): fully reversible
hepatomegaly (rats [1]; oral, 42 days): developed a hepatomegaly
histology of hepatomegaly (rats [1]; oral, 42 days): increased volume of hepatic nucleoles
drug-related toxic effect (rats [1]; oral, 42 days, up to 200 mg/kg/day): did not show any drug-related toxic effect
inhibition of response induced by bradykinin (guinea pig): 100%
hyperpyrexia of the treated group (rabbits; 2 hours after administration (untreated 1.5° C.)): +0.7 °C
hyperpyrexia of the treated group (rabbits; 3 hours after administration (untreated 1.15° C.)): +0.1 °C
effect on schistosomiasis infections [2]: did not show any "significant effect on schistosomiasis infections"
ED (2-fold analgesic threshold) (rat inflamed paw): 18.4 mg/kg
activity in granuloma pouch (granuloma pouch): showed activity
inhibition of physiologic peristaltic movements (cats): inhibited physiologic peristaltic movements
water solubility [3]: low water solubility
LD50 (Acute toxicity in mice): 600 mg/kg
EC (maximum relaxation) ([4]; read-out: concentration producing maximum relaxation of the tracheal muscle): 20 µg/mL
minimal effective concentration ([4]; read-out: minimum effective dose (tracheal relaxation)): ~5 µg/mL
inhibition of oedema [5]: 39%
ED50 (mice [6]): 8.9 mg/kg
liver elimination of sulphobromophthalein (rats [7]): eliminated sulphobromophthalein well
tolerance of gastric and rectal mucosae (rats [7]): tolerated the compound well
sodium excretion (rats [8]): increased
increase of total urine volume with respect to control (rats [8]; 24 hours period): 44%
increase of total urine volume with respect to control (rats [8]; first 6 hours): 94%
activity in Mycob. Butyricum induced arthritis [9]: showed activity
LD50 (Acute toxicity in rats; ip, female rats): 420 mg/kg
LD50 (Acute toxicity in rats; po, orally, male rats): ~2000 mg/kg
ED50 (mice [10]): 2.8 mg/kg
LD50 ([11]; ip): 400 to 600 mg/kg
LD50 ([11]; oral): 600 to 2000 mg/kg
toxicity results compared with the 92 days study (rats [12]): almost the same as in the 92 days study
activity in Evans blue permeability assay (Evans blue permeability): showed activity
IC50 (Guinea pig ileum; agonist: Acetylcholine): 14.3 µg/mL (≈ 72.3 µM)
IC50 (Guinea pig ileum; agonist: BaCl2): 19.7 µg/mL (≈ 100 µM)
IC50 (Guinea pig ileum; agonist: Histamine): 22.9 µg/mL (≈ 116 µM)
IC50 (Guinea pig ileum; agonist: Nicotine): 27.8 µg/mL (≈ 141 µM)
